Data published in patent US20220288213A1, “INSULIN ANALOGUES WITH GLUCOSE REGULATED CONFORMATIONAL SWITCH” (Thermalin Inc., priority 2019, published 2022).

Experiments:
[1] = Alizarin Red S (ARS) competitive assay, glucose as competitor; type: binding
Description: Stock solutions of test compounds, competitor (polyols, i.e., fructose and glucose), and Alizarin Red S (ARS) were dissolved in 0.1 mM Sodium Phosphate, pH 7.4. In a 96-well plate, stock solutions were combined to final concentrations of 20 μm ARS, 0.1 mM test compound, and varying competitor concentrations (0, 5, 10, 15, and/or 25 mM). Final solution (75 μL) was added to each plate well. Fluorescence data was acquired on Molecular Devices SpectraMax M2 with excitation at 456 nm and emission at 600 nm. In this assay, the selectivity of synthesized constructs for glucose was determined using the ARS competitive assay. Test articles were incubated with ARS and competitors (i.e. glucose and fructose) were added at varying concentrations. ARS fluorescence increases when the molecule interacts with boronic acids. The fluorescence was measured after the addition of the competitor. A decrease in fluorescence indicates the displacement of the ARS molecule by the sensor. All data were normalized to the fluorescence of an untreated solution (ARS bound to the sensing unit). […] This was not observed when FPBA was incubated with glucose. […] These are peptides modified to include glucose sensors at the lysyl residue. DA-Z4 is an L-diaminopropionic acid modified to include two benzoxoxaboroles. DA-Z16 is an D-diaminobutyric acid modified to include two benzoxaboroles. […]

[2] = Alizarin Red S (ARS) competitive assay, fructose as competitor; type: binding; details: 20 μm ARS, 0.1 mM test compound, competitor 0-25 mM, pH 7.4; a decrease means ARS is displaced
Description: Stock solutions of test compounds, competitor (polyols, i.e., fructose and glucose), and Alizarin Red S (ARS) were dissolved in 0.1 mM Sodium Phosphate, pH 7.4. In a 96-well plate, stock solutions were combined to final concentrations of 20 μm ARS, 0.1 mM test compound, and varying competitor concentrations (0, 5, 10, 15, and/or 25 mM). Final solution (75 μL) was added to each plate well. Fluorescence data was acquired on Molecular Devices SpectraMax M2 with excitation at 456 nm and emission at 600 nm.
In this assay, the selectivity of synthesized constructs for glucose was determined using the ARS competitive assay. Test articles were incubated with ARS and competitors (i.e. glucose and fructose) were added at varying concentrations. ARS fluorescence increases when the molecule interacts with boronic acids. The fluorescence was measured after the addition of the competitor. A decrease in fluorescence indicates the displacement of the ARS molecule by the sensor. All data were normalized to the fluorescence of an untreated solution (ARS bound to the sensing unit). […] This was not observed when FPBA was incubated with glucose. […] These are peptides modified to include glucose sensors at the lysyl residue. DA-Z4 is an L-diaminopropionic acid modified to include two benzoxoxaboroles. DA-Z16 is an D-diaminobutyric acid modified to include two benzoxaboroles. […]

Row | binding to glucose compared to monoboronic acids such as FPBA and FPBA KB28 PB29 ([1]; ARS data) | Compound | ARS fluorescence signal when treated with fructose [2] | ARS fluorescence signal decrease when incubated with glucose ([1]; 20 μm ARS, 0.1 mM test compound, competitor 0-25 mM, pH 7.4)
1 | stronger binding to glucose | O=C(NC[C@H](NC(=O)c1ccc2c(c1)B(O)OC2)C(=O)O)c1ccc2c(c1)B(O)OC2 [DA-Z4, (S)-2,3-bis(1-hydroxy-1,3-dihydrobenzo[c][1,2]oxaborole-6-carboxamido)propanoic acid] | – | –
2 | – | fluoro-phenylboronic acid [FPBA] | fluorescence signal decreases | not observed
